Test results as given in patent publication US20160158317A1, “Antimicrobial Peptide Variants and Polynucleotides Encoding Same” (Adenium Biotech A/S, priority 2010, published 2016).
Where a SMILES comes first, the peptide text is derived from it. Bridges are numbered along the chain shown (N, C = ends).

Assay: Determination of the protein binding (90% serum, 30 kDa filter, HPLC)
Assay type: in vitro ADME
Details: serum
Procedure: Protein binding assays were performed as follows. The purified peptides were mixed with 90% serum and centrifuged through a 30 kDa filter. The ultra-filtrate and the non filtrated serum samples were quantified by HPLC measurements and the protein binding was subsequently calculated.

Compared with `CC(C)[C@@H]1NC(=O)CNC(=O)[C@H](CC(N)=O)NC(=O)[C@H](CCCNC(=N)N)NC(=O)[C@H](Cc2c[nH]cn2)NC(=O)[C@H](C(C)C)NC(=O)[C@@H]2CSSC[C@H](NC(=O)[C@H](C(C)C)NC(=O)[C@H](CCCNC(=N)N)NC1=O)C(=O)N[C@@H](Cc1c[nH]cn1)C(=O)N[C@@H](CCCNC(=N)N)C(=O)N[C@@H](CCCNC(=N)N)C(=O)N[C@H](C(=O)N[C@@H](CC(N)=O)C(=O)O)CSSC[C@H](NC(=O)[C@H](Cc1ccccc1)NC(=O)CN)C(=O)N[C@@H](Cc1c[nH]c3ccccc13)C(=O)N[C@@H](CC(N)=O)C(=O)N[C@@H](C(C)C)C(=O)N2` [compound 303] (H-GFCWNVCVHRNGVRVCHRRCN-OH; disulfide 3-20, 7-16 (inferred); N-terminus and C-terminus assumed), `CC(C)[C@@H]1NC(=O)CNC(=O)[C@H](CC(N)=O)NC(=O)[C@H](CCCNC(=N)N)NC(=O)[C@H](CCCCN)NC(=O)[C@H](C(C)C)NC(=O)[C@@H]2CSSC[C@H](NC(=O)[C@H](C(C)C)NC(=O)[C@H](CCCNC(=N)N)NC1=O)C(=O)N[C@@H](Cc1c[nH]cn1)C(=O)N[C@@H](CCCNC(=N)N)C(=O)N[C@@H](CCCNC(=N)N)C(=O)N[C@H](C(=O)N[C@@H](CC(N)=O)C(=O)O)CSSC[C@H](NC(=O)[C@H](Cc1ccccc1)NC(=O)CN)C(=O)N[C@@H](Cc1c[nH]c3ccccc13)C(=O)N[C@@H](CC(N)=O)C(=O)N[C@@H](C(C)C)C(=O)N2` [compound 305] (H-GFCWNVCVKRNGVRVCHRRCN-OH; disulfide 3-20, 7-16 (inferred); N-terminus and C-terminus assumed) is lower in fraction unbound: 0.57 for the first, 0.24 for the second.

First: CC(C)[C@@H]1NC(=O)CNC(=O)[C@H](CC(N)=O)NC(=O)[C@H](CCCNC(=N)N)NC(=O)[C@H](CCCNC(=N)N)NC(=O)[C@H](C(C)C)NC(=O)[C@@H]2CSSC[C@H](NC(=O)[C@H](C(C)C)NC(=O)[C@H](CCCNC(=N)N)NC1=O)C(=O)N[C@@H](Cc1c[nH]cn1)C(=O)N[C@@H](CCCNC(=N)N)C(=O)N[C@@H](CCCNC(=N)N)C(=O)N[C@H](C(=O)N[C@@H](CC(N)=O)C(=O)O)CSSC[C@H](NC(=O)[C@H](Cc1ccccc1)NC(=O)CN)C(=O)N[C@@H](Cc1c[nH]c3ccccc13)C(=O)N[C@@H](CC(N)=O)C(=O)N[C@@H](C(C)C)C(=O)N2 [compound 308] (H-GFCWNVCVRRNGVRVCHRRCN-OH; disulfide 3-20, 7-16 (inferred); N-terminus and C-terminus assumed)
Second: CC(C)[C@@H]1NC(=O)CNC(=O)[C@H](CC(N)=O)NC(=O)[C@H](CCCNC(=N)N)NC(=O)[C@H](CCCNC(=N)N)NC(=O)[C@H](C(C)C)NC(=O)[C@@H]2CSSC[C@H](NC(=O)[C@H](C(C)C)NC(=O)[C@H](CCCNC(=N)N)NC1=O)C(=O)N[C@@H](Cc1c[nH]cn1)C(=O)N[C@@H](CCCNC(=N)N)C(=O)N[C@@H](CCCNC(=N)N)C(=O)N[C@H](C(=O)N[C@@H](CC(N)=O)C(=O)O)CSSC[C@H](NC(=O)[C@H](Cc1ccccc1)NC(=O)CN)C(=O)N[C@@H](Cc1c[nH]c3ccccc13)C(=O)N[C@@H](CCCNC(=N)N)C(=O)N[C@@H](C(C)C)C(=O)N2 [compound 335] (H-GFCWRVCVRRNGVRVCHRRCN-OH; disulfide 3-20, 7-16 (inferred); N-terminus and C-terminus assumed)
The fraction unbound of the first is higher: 0.06 for the first, 0.05 for the second.

Compared with `CC(C)[C@@H]1NC(=O)[C@@H]2CSSC[C@H](NC(=O)[C@H](CCCCN)NC(=O)[C@H](CCCNC(=N)N)NC(=O)[C@H](C)NC(=O)CNC(=O)[C@H](CC(N)=O)NC(=O)[C@H](CCCNC(=N)N)NC(=O)[C@H](Cc3ccc(O)cc3)NC1=O)C(=O)N[C@@H](Cc1ccc(O)cc1)C(=O)N[C@@H](CCCNC(=N)N)C(=O)N[C@@H](CCCNC(=N)N)C(=O)N[C@H](C(=O)N[C@@H](CC(N)=O)C(=O)O)CSSC[C@H](NC(=O)[C@H](Cc1ccccc1)NC(=O)CN)C(=O)N[C@@H](Cc1c[nH]c3ccccc13)C(=O)N[C@@H](CCCNC(=N)N)C(=O)N[C@@H](C(C)C)C(=O)N2` [compound 313] (H-GFCWRVCVYRNGARKCYRRCN-OH; disulfide 3-20, 7-16 (inferred); N-terminus and C-terminus assumed), `CC(C)[C@@H]1NC(=O)CNC(=O)[C@H](CC(N)=O)NC(=O)[C@H](CCCNC(=N)N)NC(=O)[C@H](Cc2ccc(O)cc2)NC(=O)[C@H](CO)NC(=O)[C@@H]2CSSC[C@H](NC(=O)[C@H](CCCCN)NC(=O)[C@H](CCCNC(=N)N)NC1=O)C(=O)N[C@@H](Cc1ccc(O)cc1)C(=O)N[C@@H](CCCNC(=N)N)C(=O)N[C@@H](CCCNC(=N)N)C(=O)N[C@H](C(=O)N[C@@H](CC(N)=O)C(=O)O)CSSC[C@H](NC(=O)[C@H](Cc1ccccc1)NC(=O)CN)C(=O)N[C@@H](Cc1c[nH]c3ccccc13)C(=O)N[C@@H](CCCNC(=N)N)C(=O)N[C@@H](C(C)C)C(=O)N2` [compound 331] (H-GFCWRVCSYRNGVRKCYRRCN-OH; disulfide 3-20, 7-16 (inferred); N-terminus and C-terminus assumed) is higher in fraction unbound: 0.02 for the first, 0.05 for the second.

Compared with `CC(C)[C@@H]1NC(=O)CNC(=O)[C@H](CC(N)=O)NC(=O)[C@H](CCCNC(=N)N)NC(=O)[C@H](Cc2ccc(O)cc2)NC(=O)[C@H](C(C)C)NC(=O)[C@@H]2CSSC[C@H](NC(=O)[C@H](CCCCN)NC(=O)[C@H](CCCNC(=N)N)NC1=O)C(=O)N[C@@H](Cc1c[nH]cn1)C(=O)N[C@@H](CCCNC(=N)N)C(=O)N[C@@H](CCCNC(=N)N)C(=O)N[C@H](C(=O)N[C@@H](CC(N)=O)C(=O)O)CSSC[C@H](NC(=O)[C@H](Cc1ccccc1)NC(=O)CN)C(=O)N[C@@H](Cc1c[nH]c3ccccc13)C(=O)N[C@@H](CCCNC(=N)N)C(=O)N[C@@H](C(C)C)C(=O)N2` [compound 315] (H-GFCWRVCVYRNGVRKCHRRCN-OH; disulfide 3-20, 7-16 (inferred); N-terminus and C-terminus assumed), `CC(C)[C@@H]1NC(=O)CNC(=O)[C@H](CC(N)=O)NC(=O)[C@H](CCCNC(=N)N)NC(=O)[C@H](Cc2ccc(O)cc2)NC(=O)[C@H](C(C)C)NC(=O)[C@@H]2CSSC[C@H](NC(=O)[C@H](CO)NC(=O)[C@H](CCCNC(=N)N)NC1=O)C(=O)N[C@@H](Cc1c[nH]cn1)C(=O)N[C@@H](CCCNC(=N)N)C(=O)N[C@@H](CCCNC(=N)N)C(=O)N[C@H](C(=O)N[C@@H](CC(N)=O)C(=O)O)CSSC[C@H](NC(=O)[C@H](Cc1ccccc1)NC(=O)CN)C(=O)N[C@@H](Cc1c[nH]c3ccccc13)C(=O)N[C@@H](CCCNC(=N)N)C(=O)N[C@@H](C(C)C)C(=O)N2` [compound 316] (H-GFCWRVCVYRNGVRSCHRRCN-OH; disulfide 3-20, 7-16 (inferred); N-terminus and C-terminus assumed) is higher in fraction unbound: 0.07 for the first, 0.1 for the second.

Going from `CC(C)[C@@H]1NC(=O)CNC(=O)[C@H](CC(N)=O)NC(=O)[C@H](CCCNC(=N)N)NC(=O)[C@H](Cc2ccc(O)cc2)NC(=O)[C@H](C(C)C)NC(=O)[C@@H]2CSSC[C@H](NC(=O)[C@H](C)NC(=O)[C@H](CCCNC(=N)N)NC1=O)C(=O)N[C@@H](Cc1ccc(O)cc1)C(=O)N[C@@H](CCCNC(=N)N)C(=O)N[C@@H](CCCNC(=N)N)C(=O)N[C@H](C(=O)N[C@@H](CC(N)=O)C(=O)O)CSSC[C@H](NC(=O)[C@H](Cc1ccccc1)NC(=O)CN)C(=O)N[C@@H](Cc1c[nH]c3ccccc13)C(=O)N[C@@H](CCCNC(=N)N)C(=O)N[C@@H](C)C(=O)N2` [compound 319] (H-GFCWRACVYRNGVRACYRRCN-OH; disulfide 3-20, 7-16 (inferred); N-terminus and C-terminus assumed) to `CC(C)[C@@H]1NC(=O)CNC(=O)[C@H](CC(N)=O)NC(=O)[C@H](CCCNC(=N)N)NC(=O)[C@H](Cc2ccc(O)cc2)NC(=O)[C@H](C(C)C)NC(=O)[C@@H]2CSSC[C@H](NC(=O)[C@H](CO)NC(=O)[C@H](CCCNC(=N)N)NC1=O)C(=O)N[C@@H](Cc1ccc(O)cc1)C(=O)N[C@@H](CCCNC(=N)N)C(=O)N[C@@H](CCCNC(=N)N)C(=O)N[C@H](C(=O)N[C@@H](CC(N)=O)C(=O)O)CSSC[C@H](NC(=O)[C@H](Cc1ccccc1)NC(=O)CN)C(=O)N[C@@H](Cc1c[nH]c3ccccc13)C(=O)N[C@@H](CCCNC(=N)N)C(=O)N[C@@H](C)C(=O)N2` [compound 320] (H-GFCWRACVYRNGVRSCYRRCN-OH; disulfide 3-20, 7-16), the fraction unbound falls from 0.6 to 0.12.

`CC(C)[C@@H]1NC(=O)[C@H](CCCNC(=N)N)NC(=O)[C@H](Cc2c[nH]c3ccccc23)NC(=O)[C@@H](NC(=O)[C@H](Cc2ccccc2)NC(=O)CN)CSSC[C@@H](C(=O)N[C@@H](CC(N)=O)C(=O)O)NC(=O)[C@H](CCCNC(=N)N)NC(=O)[C@H](CCCNC(=N)N)NC(=O)[C@H](Cc2ccc(O)cc2)NC(=O)[C@@H]2CSSC[C@H](NC1=O)C(=O)N[C@@H](Cc1c[nH]cn1)C(=O)N[C@@H](Cc1ccc(O)cc1)C(=O)N[C@@H](CCCNC(=N)N)C(=O)N[C@@H](CC(N)=O)C(=O)N[C@@H](CO)C(=O)N[C@@H](C(C)C)C(=O)N[C@@H](CCCNC(=N)N)C(=O)N[C@@H](C(C)C)C(=O)N2` [compound 327] (H-GFCWRVCHYRNSVRVCYRRCN-OH; disulfide 3-20, 7-16 (inferred); N-terminus and C-terminus assumed) and `CC(C)[C@@H]1NC(=O)[C@@H]2CSSC[C@H](NC(=O)[C@H](C)NC(=O)[C@H](CCCNC(=N)N)NC(=O)[C@H](CCCCN)NC(=O)CNC(=O)[C@H](CC(N)=O)NC(=O)[C@H](CCCNC(=N)N)NC(=O)[C@H](Cc3ccc(O)cc3)NC1=O)C(=O)N[C@@H](Cc1ccc(O)cc1)C(=O)N[C@@H](CCCNC(=N)N)C(=O)N[C@@H](CCCNC(=N)N)C(=O)N[C@H](C(=O)N[C@@H](CC(N)=O)C(=O)O)CSSC[C@H](NC(=O)[C@H](Cc1ccccc1)NC(=O)CN)C(=O)N[C@@H](Cc1c[nH]c3ccccc13)C(=O)N[C@@H](Cc1ccc(O)cc1)C(=O)N[C@@H](C)C(=O)N2` [compound 340] (H-GFCWYACVYRNGKRACYRRCN-OH; disulfide 3-20, 7-16 (inferred); N-terminus and C-terminus assumed) are the same in fraction unbound: 0.02 for the first, 0.02 for the second.
